Results on 13 molecules are retold here after ChEMBL document CHEMBL6074649, “An insight into recent developments in imidazole based heterocyclic compounds as anticancer agents: Synthesis, SARs, and mechanism of actions” (Eur J Med Chem, 2024).

Series [1] deals with A549. The series is described as follows: Antiproliferative activity against human A549 cells assessed as reduction in cell viability incubated for 48 hrs by CCK-8 assay. It counts as functional, cell-based. To be noted: A549, 48 h. On the technique in general: Tetrazolium dyes change colour on reduction, which living cells bring about.
The test system of series [2] is U-251. Kind of series: Antiproliferative activity against human U-251 cells assessed as reduction in cell viability incubated for 48 hrs by CCK-8 assay. It counts as functional, cell-based. To be noted: U-251, 48 h.
Series [3] deals with HepG2. Kind of series: Antiproliferative activity against human HepG2 cells assessed as reduction in cell viability incubated for 48 hrs by CCK-8 assay. It counts as functional, cell-based. The note with it: HepG2, 48 h.
For series [4], the system named is NCI-H1299. The series is described as follows: Antiproliferative activity against human NCI-H1299 cells assessed as reduction in cell growth by MTT assay. It counts as functional, cell-based.
Series [5] has as its system A549. The series is described as follows: Antiproliferative activity against A549 cells assessed as reduction in cell growth by MTT assay. Format: functional, cell-based. The note with it: Homo sapiens.
Series [6] concerns MCF7. The series is described as follows: Antiproliferative activity against MCF7 cells assessed as reduction in cell growth by MTT assay. Format: functional, cell-based. The note with it: Homo sapiens.
A short description of series [7]: Antiproliferative activity against MRC5 cells assessed as reduction in cell growth by MTT assay. To be noted: human. Format: toxicity, cell-based.
Series [8] has as its system NCI-H460. The series is described as follows: Antiproliferative activity against human NCI-H460 cells assessed as reduction in cell growth by MTT assay. Format: functional, cell-based.
Series [9] is described as follows: Cytotoxicity against human MCF-10A cells measured after 24 hrs by MTT assay. It counts as toxicity, cell-based.
The subject of series [10] is HepG2. Kind of series: Cytotoxicity against human HepG2 cells after 24 hrs by MTT assay. It counts as functional, cell-based. The note with it: HepG2, 24 h.
The test system of series [11] is MCF7. Kind of series: Cytotoxicity against human MCF7 cells after 24 hrs by MTT assay. Format: functional, cell-based. The note with it: MCF7, 24 h.
Series [12] concerns HCT-116. Kind of series: Cytotoxicity against human HCT-116 cells after 24 hrs by MTT assay. Format: functional, cell-based. The note with it: HCT-116, 24 h.
Series [13] deals with A549. The series is described as follows: Cytotoxicity against human A549 cells assessed as reduction in cell viability by MTT assay. It counts as functional, cell-based.
Series [14] has as its system COLO 205. Kind of series: Cytotoxicity against human COLO 205 cells assessed as reduction in cell viability by MTT assay. Format: functional, cell-based.
The subject of series [15] is MCF7. Kind of series: Cytotoxicity against human MCF7 cells assessed as reduction in cell viability by MTT assay. Format: functional, cell-based.
Series [16] has as its system A2780. The series is described as follows: Cytotoxicity against human A2780 cells assessed as reduction in cell viability by MTT assay. It counts as functional, cell-based.
The subject of series [17] is A549. Kind of series: Cytotoxicity against human A549 cells assessed as reduction in cell growth. Format: functional, cell-based.
Series [18] has as its system BXPC-3. The series is described as follows: Antiproliferative activity against human BXPC-3 assessed as reduction in cell growth. Format: functional, cell-based.
The test system of series [19] is HeLa. The series is described as follows: Cytotoxicity against human HeLa cells assessed as reduction in cell growth incubated for 24 hrs by MTT assay. It counts as functional, cell-based.
For series [20], the system named is Caco-2. Kind of series: Cytotoxicity against human Caco-2 cells assessed as reduction in cell growth incubated for 24 hrs by MTT assay. It counts as functional, cell-based. To be noted: Caco-2, 24 h.
For series [21], the system named is HCT-116. Kind of series: Cytotoxicity against human HCT-116 cells assessed as reduction in cell growth incubated for 24 hrs by MTT assay. Format: functional, cell-based. The note with it: HCT-116, 24 h.
For series [22], the system named is HepG2. Kind of series: Anticancer activity against human HepG2 cells. It counts as functional, cell-based.
For series [23], the system named is DU-145. The series is described as follows: Anticancer activity against human DU-145 cells. It counts as functional, cell-based.
The test system of series [24] is PC-3. The series is described as follows: Anticancer activity against human PC-3 cells. Format: functional, cell-based.
In series [25] the test system is MCF7. The series is described as follows: Anticancer activity against human MCF7 cells. Format: functional, cell-based.
For series [26], the system named is HepG2. The series is described as follows: Antiproliferative activity against human HepG2 cells. Format: functional, cell-based.
Series [27] concerns NCI-H1299. Kind of series: Anticancer activity against human NCI-H1299 cells by MTT assay. It counts as functional, cell-based.
Series [28] in a line: Anticancer activity against human UKF-NB-3 cells by MTT assay. It counts as functional, cell-based.
Series [29] relates to A549. The series is described as follows: Anticancer activity against human A549 cells by MTT assay. It counts as functional, cell-based.
The subject of series [30] is A549. The series is described as follows: Antiproliferative activity against human A549 cells assessed as reduction in cell growth incubated for 24 hrs by MTT assay. Format: functional, cell-based. To be noted: A549, 24 h.
Series [31] concerns HepG2. Kind of series: Antiproliferative activity against human HepG2 cells assessed as reduction in cell growth incubated for 24 hrs by MTT assay. Format: functional, cell-based. The note with it: HepG2, 24 h.
A short description of series [32]: Antiproliferative activity against human MCF7/MX cells assessed as reduction in cell growth incubated for 24 hrs by MTT assay. Format: functional, cell-based.
Series [33] relates to MCF7. The series is described as follows: Antiproliferative activity against human MCF7 cells assessed as reduction in cell growth incubated for 24 hrs by MTT assay. Format: functional, cell-based. To be noted: MCF7, 24 h.
Series [34] relates to MDA-MB-231. The series is described as follows: Antiproliferative activity against human MDA_MB-231 cells. It counts as functional, cell-based.
Series [35] is described as follows: Antiproliferative activity against mouse 4T1-Luc cells. It counts as functional, cell-based.

In brackets after ≈: the same amount, converted by molar mass.

For orientation: IC50 means the concentration needed to halve the response being measured. For the molecule `O=C(OCCn1c([N+](=O)[O-])cnc1/C=C/c1ccc2ccccc2c1)c1nccc2ccccc12`, the IC50 stood at 0.32 µM in series [1], 0.1 µM in series [2] and 0.11 µM in [3].

Turning to `CN(C)CCCOc1ccc(-c2nc(-c3ccc([N+](=O)[O-])o3)[nH]c2-c2ccc(OCCCN(C)C)cc2)cc1`, the IC50 in series [4] is under 0.1 µM; in [5], 6.71 µM; in series [6], 6.75 µM; in [7] it was 7.1 µM; in series [8], 6.95 µM.

For the molecule `CC(=O)O[C@@]12CO[C@@H]1C[C@H](O)[C@@]1(C)C(=O)[C@H](O)C3=C(C)[C@@H](OC(=O)[C@H](O)[C@@H](NC(=O)OC(C)(C)C)c4ccccc4)C[C@@](O)([C@@H](OC(=O)c4ccccc4)[C@H]21)C3(C)C` [DOCETAXEL ANHYDROUS], it took 33.2 µM to reach half-maximal inhibition in [9] (IC50 at 24 h). Further, the IC50 in [10] came out at 8.13 µM; in series [11], 11.1 µM; in [12] it was 14 µM.

For `COc1cc(OC)c(S(=O)(=O)n2ccnc2-c2ccon2)c(OC)c1`, the IC50 was 0.29 µM in series [13], 0.26 µM in [14], 0.41 µM in [15] and 1.22 µM in series [16].

With `C#Cc1cccc(Nc2ncnc3cc(OCCOC)c(OCCOC)cc23)c1` [ERLOTINIB], the IC50 in series [17] was 25.2 µM; in series [18] it was 9.8 µM.

For `O=C(O)c1ccc(C(=O)NCn2cc(CSc3nc(-c4ccccc4)c(-c4ccccc4)n3-c3ccccc3)nn2)cc1`, the IC50 in [19] stood at 6.87 µM; in series [20], 4.67 µM; in series [21], 16.8 µM.

For `CCOC(=O)N1CCN(c2c([N+](=O)[O-])nc(CC)n2CC)CC1`, the IC50 in [22] amounted to 5.6 µM; in series [23], 42.2 µM; in series [24], 49.6 µM; in [25], 29.6 µM.

Molecule `CCOC(=O)c1nn(-c2ccc(Cl)cc2)/c(=N\NC2=NC(c3ccccc3)(c3ccccc3)C(=O)N2)s1` came in with an IC50 in series [26] of 0.72 µM.

In the case of `O=C(Cn1cnc(-c2ccccc2)c1-c1ccccc1)NCCOC(=O)C12CC3CC(CC(C3)C1)C2`, the IC50 is over 100 µg/mL in series [27], 8.53 µg/mL (≈ 17.6 µM) in [28] and 43.2 µg/mL (≈ 89.3 µM) in series [29].

With `COc1ccc(C2=N[C@H](c3ccc(Cl)cc3)[C@H](c3ccc(Cl)cc3)N2C(=O)N2CCNC(=O)C2)c(OC(C)C)c1`, the values for the IC50 in series [27], in series [28] and in series [29] were over 100 µg/mL, 5.2 µg/mL (≈ 8.94 µM) and 11.1 µg/mL (≈ 19.1 µM), respectively.

For `CCSc1nc(/C=C/C(=O)c2cc(OC)c(OC)c(OC)c2)cn1Cc1ccccc1`, the IC50 amounted to 7.05 µM in series [30], 22 µM in [31], 20.2 µM in [32] and 9.88 µM in series [33].

Turning to `Cc1[nH]c(SCc2c(F)cccc2F)nc1Cc1ccccc1`, the IC50 in series [34] stood at 9.5 µM; in series [35], 6.66 µM.

Consider `Cc1[nH]c(SCc2ccccc2)nc1Cc1ccccc1`, for which the IC50 in [34] came to 8.26 µM; in series [35] it was 8.03 µM.
